Our source for the TGI and GI50 values is PubChem BioAssay (NCI).

Holding throughout (experiment): NCI-60 cell line screen, 48 h
Test [1] has as its system OVCAR-3 ovarian.
The test system of test [2] is U251 CNS.
Test [3] has as its system BT-549 breast.
Test [4] has as its system NCI-H460 lung.
For test [5], the system named is OVCAR-5 ovarian.
The test system of test [6] is UO-31 renal.
The subject of test [7] is HCC-2998 colon.
Test [8] relates to A549 NSCLC.
For test [9], the system named is T-47D breast.
Test [10] concerns SR leukemia.

SMILES strings stand for the structures.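 Tested at 5 concentrations; 48 h exposure; 96-well plates; endpoints linearly interpolated, else capped at highest concentration. Abbreviation: GI50, concentration required for 50% inhibition of growth. At the TGI there is no net growth.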

Take `COC1(OC)CC(CO)(COc2cc(Cl)nc(N)n2)C1`: the TGI in [1], in test [2], in test [3], in [4], in test [5] and in test [6] was greater than 100 µM each time. The TGI in [7], in test [8] and in test [9] was greater than 100 µM in each case.
On to `O=S(=O)(O)c1ccc(O)c(N=Nc2c(O)ccc3ccccc23)c1`, for which the TGI in [1], in test [2], in [3], in test [5], in test [6] and in test [8] was greater than 100 µM in each case. The TGI in test [9] was greater than 100 µM.
In the case of `CSc1nnnc2ccccc12`, the TGI in [1], in test [2], in test [3], in [4], in test [5] and in [6] was greater than 100 µM in each case. In addition, the TGI in test [7], in test [8] and in [9] was greater than 100 µM in each case.
Take `C=C1c2c(n(S(=O)(=O)c3ccccc3)c3ccccc23)[C@@]2(C(=O)OC)CC3C=CC2N1C3`: the TGI in test [1], in test [2], in test [3], in test [4], in [5] and in [7] was greater than 100 µM in each case. Further, the TGI in test [8] and in [9] was greater than 100 µM throughout.
As for `Oc1ccc(-c2nc3cc(C(F)(F)F)ccc3s2)cc1`, the TGI in [10] is 35.2 µM; in test [1], 28.3 µM; in [2], 30.5 µM; in test [3], 28.5 µM; in [4] it was 30.1 µM; in test [5], 30.9 µM. Further, the results for the TGI in test [6] and in test [8] were 26.8 µM and 29.7 µM, respectively.
With `O=S(=O)(O)c1cc(S(=O)(=O)O)c2cc(N=Nc3ccc(N=Nc4ccc(/C=C/c5ccc(N=[N+]([O-])c6ccc(/C=C/c7ccc(N=Nc8ccc(N=Nc9ccc%10cc(S(=O)(=O)O)cc(S(=O)(=O)O)c%10c9)cc8)cc7S(=O)(=O)O)c(S(=O)(=O)O)c6)cc5S(=O)(=O)O)c(S(=O)(=O)O)c4)cc3)ccc2c1`, the TGI in test [1] was greater than 31.6 µM; in [2] it was greater than 100 µM; in test [4], greater than 100 µM; in test [5], greater than 100 µM; in test [6], greater than 100 µM; in [7], greater than 100 µM. Further, the TGI in test [8] was greater than 100 µM.
In the case of `COP(=O)(CP(=O)(OC)OCCC(C)CCC=C(C)C)OC` (stereo unspecified), the TGI in test [1] is greater than 100 µM; in test [2], 87.8 µM; in [3] it was greater than 100 µM; in test [4], greater than 100 µM; in [5], greater than 100 µM; in test [6], greater than 100 µM. Further, the TGI in [7], in test [8] and in test [9] was greater than 100 µM each time.
Regarding `COC1C(O)C(C)OC(O[C@H]2CC[C@@]3(C)C(CC[C@@H]4[C@@H]3CC[C@]3(C)[C@@H](C(C)OC5OC(CO)C(O)C(O)C5O)CC[C@]43O)C2)C1O` (stereo partly specified), the TGI in test [10], in test [1], in [2], in test [4], in test [5] and in [6] was greater than 25 µM throughout. The TGI in test [7] and in test [8] was greater than 25 µM in each case.
`O=c1oc2ccccc2c(O)c1C(c1ccc(OCc2ccccc2)cc1)c1c(O)c2ccccc2oc1=O`: the TGI in [1] was greater than 100 µM; in [2], greater than 100 µM; in [3] it was 61.8 µM; in test [4] it was greater than 100 µM; in [5] it was greater than 100 µM; in test [6] it was 52.5 µM. Further, the TGI in [7] is 96.9 µM; in test [8] it was greater than 100 µM; in [9], greater than 100 µM.
On to `CC(=O)NC1C(OCc2ccccc2)OC(CO)C(O)C1OC(C)C(=O)NC(C(=O)NC(CCC(=O)NCCCNc1ccc([N+](=O)[O-])c2[nH]c3ccccc3c(=O)c12)C(N)=O)C(C)C` (stereo unspecified), for which the TGI in test [1], in test [2], in test [3], in test [4], in test [5] and in test [6] was greater than 100 µM throughout. The TGI in test [8] and in test [9] was greater than 100 µM throughout.
On to `CC(=O)/C=C(/C)[O-].CC(=O)/C=C(/C)[O-].CC(=O)[CH-]C(C)=O.CC(=O)[CH-]C(C)=O.[Zr+4]`, for which the GI50 in test [10], in test [1], in test [2], in [4], in [5] and in test [6] was greater than 100 µM throughout. The GI50 in test [7] was greater than 100 µM. The TGI in test [10], in test [1], in test [2], in test [4], in test [5] and in test [6] was greater than 100 µM each time. In [7], this compound gave a TGI greater than 100 µM.
With `O=C1CCCC1CC(CN1CCOCC1)Sc1nnnn1-c1ccccc1` (stereo unspecified), the TGI in [10], in test [1], in test [2], in [3], in test [5] and in test [6] was greater than 100 µM each time. The TGI in [7] and in [8] was greater than 100 µM in each case.
Regarding `Cc1ccc(/C=c2\c(=O)[nH]c3nc4ccccc4c(=O)n23)cc1`, the TGI in test [1] is greater than 100 µM; in test [2] it was 38 µM; in [3] it was 60.3 µM; in test [5], greater than 100 µM; in test [6] it was greater than 100 µM; in test [7], 62.6 µM. Moreover, the TGI in test [8] and in test [9] was greater than 100 µM each time.
Take `Clc1ccc(C2SCc3nc4ccccc4n32)cc1` (stereo unspecified): the TGI in test [1] is greater than 100 µM; in [2], 66.2 µM; in test [4] it was 93.3 µM; in [6], 41.7 µM.
For the compound `COC(=O)/C=C1\C(CO[Si](C)(C)C(C)(C)C)OC(n2cc(C)c(=O)n(C)c2=O)C1O[Si](C)(C)C(C)(C)C` (stereo unspecified), the TGI in test [1], in test [2], in [5], in [6] and in test [8] was greater than 100 µM in each case.
